The values that follow come from patent publication US20120225062A1 (priority 2011, published 2012).

For one assay, the target named is Pim 1 (Homo sapiens, UniProt P11309). Description: Pim 1 AlphaScreen assay (high ATP).
In another assay the target is Pim 2 (Homo sapiens, UniProt Q9P1W9). Description: Pim 2 AlphaScreen assay (high ATP).
A further assay deals with Pim 3 (Homo sapiens, UniProt Q86V86). Nature of the assay: Pim 3 AlphaScreen assay (high ATP).
Assay [1] deals with KMS11 (human myeloma cell line). Nature of the assay: Cell Proliferation Assay (CellTiter-Glo, 3 days). The assay is classed as cell-based. To be noted: KMS-11, 72 h, KMS11-luc cells. The procedure: KMS11 (human myeloma cell line), were cultured in IMDM supplemented with 10% FBS, sodium pyruvate and antibiotics. Cells were plated in the same medium at a density of 2000 cells per well into 96 well tissue culture plates, with outside wells vacant, on the day of assay.
Test compounds supplied in DMSO were diluted into DMSO at 500 times the desired final concentrations before dilution into culture media to 2 times final concentrations. Equal volumes of 2× compounds were added to the cells in 96 well plates and incubated at 37° C. for 3 days.
After 3 days plates were equilibrated to room temperature and equal volume of CellTiter-Glow Reagent (Promega) was added to the culture wells. The plates were agitated briefly and luminescent signal was measured with luminometer.
Using the procedures of Cell Proliferation Assay, the EC50 concentrations of compounds of the examples were determined in KMS11 cells as shown in Table 4.

Structures are written as SMILES.

Pim 2, sequence (Q9P1W9 whole entry): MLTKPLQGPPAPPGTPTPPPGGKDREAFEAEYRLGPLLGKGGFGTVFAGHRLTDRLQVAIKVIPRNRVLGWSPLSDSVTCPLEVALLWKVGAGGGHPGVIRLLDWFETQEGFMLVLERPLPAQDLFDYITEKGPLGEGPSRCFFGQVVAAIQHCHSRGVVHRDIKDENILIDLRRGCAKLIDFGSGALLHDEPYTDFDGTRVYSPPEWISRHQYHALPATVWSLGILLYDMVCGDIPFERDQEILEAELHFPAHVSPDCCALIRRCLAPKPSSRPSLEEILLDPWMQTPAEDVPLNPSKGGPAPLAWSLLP
Pim 1, sequence (P11309 whole entry): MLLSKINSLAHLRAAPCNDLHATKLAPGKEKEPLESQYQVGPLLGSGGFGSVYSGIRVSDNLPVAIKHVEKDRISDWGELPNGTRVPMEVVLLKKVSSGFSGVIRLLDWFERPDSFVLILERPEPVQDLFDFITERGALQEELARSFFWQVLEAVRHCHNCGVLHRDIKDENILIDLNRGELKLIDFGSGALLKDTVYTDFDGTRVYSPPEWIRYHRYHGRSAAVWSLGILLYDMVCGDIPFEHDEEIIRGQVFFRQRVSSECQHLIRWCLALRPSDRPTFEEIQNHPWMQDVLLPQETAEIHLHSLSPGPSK

Take `C[C@@H]1C[C@H](N)C[C@H](c2ccncc2NC(=O)c2ccc(F)c(-c3c(F)cc(OC[C@H](O)CO)cc3F)n2)C1` [Example 2, N-(4-((1R,3S,5S)-3-amino-5-methylcyclohexyl)pyridin-3-yl)-6-(4-((R)-2,3-dihydroxypropoxy)-2,6-difluorophenyl)-5-fluoropicolinamide]: the IC50 against Pim 1 worked out at 0.01 nM; against Pim 2, 2.99 nM; against Pim 3, 0.57 nM.

Take `C[C@H]1CN(c2ccncc2NC(=O)c2ccc(F)c(-c3c(F)ccc(OCCO)c3F)n2)C[C@@H](N)[C@@H]1O` [Example 31, N-(4-((3R,4R,5S)-3-amino-4-hydroxy-5-methylpiperidin-1-yl)pyridin-3-yl)-6-(2,6-difluoro-3-(2-hydroxyethoxy)phenyl)-5-fluoropicolinamide]: the EC50 in assay [1] stood at 12 nM. Further, the IC50 against Pim 2 is 1.36 nM.

The molecule `C[C@@H]1C[C@H](N)C[C@H](c2ccncc2NC(=O)c2ccc(F)c(-c3c(F)cc(C4(O)COC4)cc3F)n2)C1` [Example 55, N-(4-((1R,3S,5S)-3-amino-5-methylcyclohexyl)pyridin-3-yl)-6-(2,6-difluoro-4-(3-hydroxyoxetan-3-yl)phenyl)-5-fluoropicolinamide] displayed a half-maximal effective concentration (EC50) in assay [1] of 24 nM. The IC50 at Pim 1 was 0.02 nM; against Pim 2 it was 2.42 nM.

For `C[C@H]1C[C@@H](c2ccncc2NC(=O)c2nc(-c3c(F)cc(OC4CCOCC4)cc3F)c(F)cc2N)C[C@@H](N)[C@@H]1O` [Example 87, 3-amino-N-(4-((1R,3R,4R,5S)-3-amino-4-hydroxy-5-methylcyclohexyl)pyridin-3-yl)-6-(2,6-difluoro-4-(tetrahydro-2H-pyran-4-yloxy)phenyl)-5-fluoropicolinamide], in assay [1], a half-maximal effect (EC50) was put at 31 nM. Moreover, the half-maximal inhibitory concentration (IC50) at Pim 2 was 1.46 nM.

Consider `CC(C)[C@@H]1C[C@H](N)C[C@H](c2ccncc2NC(=O)c2ccc(F)c(-c3c(F)cc(OC4CCOCC4)cc3F)n2)C1` [Example 110, N-(4-((1R,3S,5S)-3-amino-5-isopropylcyclohexyl)pyridin-3-yl)-6-(2,6-difluoro-4-(tetrahydro-2H-pyran-4-yloxy)phenyl)-5-fluoropicolinamide], for which the figures for the 50% inhibitory concentration (IC50) on Pim 1, on Pim 2 and on Pim 3 were 0.01 nM, 0.95 nM and 0.25 nM, respectively.

On to `CC(C)[C@@H]1C[C@H](N)C[C@H](c2ccncc2NC(=O)c2ccc(F)c(-c3c(F)cc(C4(O)COC4)cc3F)n2)C1` [Example 111, N-(4-((1R,3S,5S)-3-amino-5-isopropylcyclohexyl)pyridin-3-yl)-6-(2,6-difluoro-4-(3-hydroxyoxetan-3-yl)phenyl)-5-fluoropicolinamide], for which the IC50 on Pim 1 stood at 0.01 nM; against Pim 2, 0.76 nM; at Pim 3, 0.61 nM.

On to `COC1(c2cc(F)c(-c3nc(C(=O)Nc4cnccc4N4C[C@@H](N)[C@H](O)[C@@H](C)C4)c(N)cc3F)c(F)c2)COC1` [Example 112, 3-amino-N-(4-((3R,4R,5S)-3-amino-4-hydroxy-5-methylpiperidin-1-yl)pyridin-3-yl)-6-(2,6-difluoro-4-(3-methoxyoxetan-3-yl)phenyl)-5-fluoropicolinamide], for which the IC50 against Pim 1 turned out to be 0.01 nM; at Pim 2, 0.48 nM; against Pim 3 it was 0.21 nM.

Consider `COC(C)(C)c1cc(F)c(-c2nc(C(=O)Nc3cnccc3[C@@H]3C[C@H](C)C[C@H](N)C3)c(N)cc2F)c(F)c1` [Example 113, 3-amino-N-(4-((1R,3S,5S)-3-amino-5-methylcyclohexyl)pyridin-3-yl)-6-(2,6-difluoro-4-(2-methoxypropan-2-yl)phenyl)-5-fluoropicolinamide], for which the results for the IC50 on Pim 1, against Pim 2 and on Pim 3 were 0.02 nM, 1.51 nM and 0.73 nM, respectively.

Regarding `COC(C)(C)c1cc(F)c(-c2nc(C(=O)Nc3cnccc3[C@H]3C[C@@H](N)[C@H](O)[C@@H](C)C3)c(N)cc2F)c(F)c1` [Example 114, 3-amino-N-(4-((1R,3R,4R,5S)-3-amino-4-hydroxy-5-methylcyclohexyl)pyridin-3-yl)-6-(2,6-difluoro-4-(2-methoxypropan-2-yl)phenyl)-5-fluoropicolinamide], the IC50 at Pim 1 was determined as 0.04 nM; against Pim 2, 1.37 nM; against Pim 3, 1.29 nM.

In the case of `C[C@H]1CN(c2ccncc2NC(=O)c2nc(-c3c(F)cc(OC4CCOCC4)cc3F)c(F)cc2N)C[C@@H](N)[C@@H]1O` [Example 115, 3-amino-N-(4-((3R,4R,5S)-3-amino-4-hydroxy-5-methylpiperidin-1-yl)pyridin-3-yl)-6-(2,6-difluoro-4-(tetrahydro-2H-pyran-4-yloxy)phenyl)-5-fluoropicolinamide], the half-inhibitory concentration (IC50) on Pim 1 turned out to be 0.01 nM; on Pim 2, 0.66 nM; at Pim 3 it was 0.12 nM.

Molecule `C[C@@H]1C[C@H](N)C[C@H](c2ccncc2NC(=O)c2ccc(F)c(-c3c(F)cc(CN4CCCC4=O)cc3F)n2)C1` [Example 144, N-(4-((1R,3S,5S)-3-amino-5-methylcyclohexyl)pyridin-3-yl)-6-(2,6-difluoro-4-((2-oxopyrrolidin-1-yl)methyl)phenyl)-5-fluoropicolinamide] displayed an EC50 in assay [1] of 55 nM. Moreover, the concentration for half-maximal inhibition (IC50) against Pim 2 was determined as 2.61 nM.

`C[C@@H]1C[C@H](N)C[C@H](c2ccncc2NC(=O)c2ccc(F)c(-c3c(F)cc(C4=CCCC4)cc3F)n2)C1` [Example 160] showed an EC50 in assay [1] of 285 nM. The IC50 is 0.02 nM on Pim 1 and 3.74 nM on Pim 2.

On to `C[C@H]1C[C@@H](c2ccncc2NC(=O)c2ccc(F)c(-c3c(F)cc(C(C)(C)C(=O)O)cc3F)n2)C[C@@H](N)[C@@H]1O` [Example 182, 2-(4-(6-(4-((1R,3R,4R,5S)-3-amino-4-hydroxy-5-methylcyclohexyl)pyridin-3-ylcarbamoyl)-3-fluoropyridin-2-yl)-3,5-difluorophenyl)-2-methylpropanoic acid], for which the concentration for a half-maximal effect (EC50) in assay [1] was > 10000 nM.

Turning to `CC(C)[C@@H]1C[C@H](N)C[C@H](c2ccncc2NC(=O)c2ccc(F)c(-c3c(F)cc(OC4COC4)cc3F)n2)C1` [Example 183, N-(4-((1R,3S,5S)-3-amino-5-isopropylcyclohexyl)pyridin-3-yl)-6-(2,6-difluoro-4-(oxetan-3-yloxy)phenyl)-5-fluoropicolinamide], a half-maximal effect in assay [1] (EC50) was put at 158 nM. At Pim 2, half-maximal inhibition (IC50) was put at 0.93 nM.

The molecule `CC(C)c1cc(F)c(-c2nc(C(=O)Nc3cnccc3[C@H]3C[C@@H](N)[C@H](O)[C@@H](C)C3)ccc2F)c(F)c1` [Example 199, N-(4-((1R,3R,4R,5S)-3-amino-4-hydroxy-5-methylcyclohexyl)pyridin-3-yl)-6-(2,6-difluoro-4-isopropylphenyl)-5-fluoropicolinamide] gave an EC50 in assay [1] of 204 nM. This counts as sub-micromolar.

In the case of `C[C@@H]1C[C@H](N)C[C@H](c2ccncc2NC(=O)c2ccc(F)c(-c3c(F)cc(Cl)cc3F)n2)C1` [Example 208, N-(4-((1R,3S,5S)-3-amino-5-methylcyclohexyl)pyridin-3-yl)-6-(4-chloro-2,6-difluorophenyl)-5-fluoropicolinamide], the concentration giving a half-maximal response (EC50) in assay [1] worked out at 363 nM.

Take `C[C@@H]1C[C@H](N)C[C@H](c2ccncc2NC(=O)c2ccc(F)c(-c3c(F)cc(F)cc3F)n2)C1` [Example 209, N-(4-((1R,3S,5S)-3-amino-5-methylcyclohexyl)pyridin-3-yl)-5-fluoro-6-(2,4,6-trifluorophenyl)picolinamide]: in assay [1], the midpoint of the response, the EC50, lay at 262 nM.

Molecule `C[C@H]1CN(c2ccncc2NC(=O)c2ccc(F)c(-c3c(F)cc(Cl)cc3F)n2)C[C@@H](N)[C@@H]1O` [Example 217, N-(4-((3R,4R,5S)-3-amino-4-hydroxy-5-methylpiperidin-1-yl)pyridin-3-yl)-6-(4-chloro-2,6-difluorophenyl)-5-fluoropicolinamide] returned an EC50 in assay [1] of 62 nM.

The molecule `C[C@H]1CN(c2ccncc2NC(=O)c2ccc(F)c(-c3c(F)cc(F)cc3F)n2)C[C@@H](N)[C@@H]1O` [Example 218, N-(4-((3R,4R,5S)-3-amino-4-hydroxy-5-methylpiperidin-1-yl)pyridin-3-yl)-5-fluoro-6-(2,4,6-trifluorophenyl)picolinamide] registered an EC50 in assay [1] of 23 nM.

The molecule `CSc1cc(F)c(-c2nc(C(=O)Nc3cnccc3[C@@H]3C[C@H](C)C[C@H](N)C3)ccc2F)c(F)c1` [Example 223, N-(4-((1R,3S,5S)-3-amino-5-methylcyclohexyl)pyridin-3-yl)-6-(2,6-difluoro-4-(methylthio)phenyl)-5-fluoropicolinamide] displayed an EC50 in assay [1] of 169 nM.

Molecule `C[C@@H]1C[C@H](N)C[C@H](c2ccncc2NC(=O)c2ccc(F)c(-c3c(F)cc(CO)cc3F)n2)C1` [Example 224, N-(4-((1R,3S,5S)-3-amino-5-methylcyclohexyl)pyridin-3-yl)-6-(2,6-difluoro-4-(hydroxymethyl)phenyl)-5-fluoropicolinamide] yielded a concentration for a half-maximal effect (EC50) in assay [1] of 64 nM.

With `CCc1cc(F)c(-c2nc(C(=O)Nc3cnccc3[C@@H]3C[C@H](C)C[C@H](N)C3)ccc2F)c(F)c1` [Example 230, N-(4-((1R,3S,5S)-3-amino-5-methylcyclohexyl)pyridin-3-yl)-6-(4-ethyl-2,6-difluorophenyl)-5-fluoropicolinamide], the EC50 in assay [1] worked out at 62 nM.

`C[C@@H]1C[C@H](N)C[C@H](c2ccncc2NC(=O)c2ccc(F)c(-c3c(F)cc(C(C)(C)O)cc3F)n2)C1` [Example 236, N-(4-((1R,3S,5S)-3-amino-5-methylcyclohexyl)pyridin-3-yl)-6-(2,6-difluoro-4-(2-hydroxypropan-2-yl)phenyl)-5-fluoropicolinamide] yielded a concentration giving a half-maximal response (EC50) in assay [1] of 13 nM.
